Here are results for 16 molecules from PubChem BioAssay (NCI).

Structures are written as SMILES.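 All cell lines were grown in 96-well plates and treated with compound for 48 hours. GI50 is the concentration that inhibits growth by half. TGI denotes the concentration required for complete inhibition of growth.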 Some results are limits rather than exact numbers.

What all share (test): NCI-60 cell line screen, 48 h
For assay [1], the system named is MALME-3M melanoma.
The test system of assay [2] is OVCAR-5 ovarian.
Assay [3] deals with CAKI-1 renal.
Assay [4] relates to M14 melanoma.
Assay [5] deals with NCI/ADR-RES ovarian.
In assay [6] the test system is DU-145 prostate.
In assay [7] the test system is HT29 colon.
For assay [8], the system named is SK-MEL-28 melanoma.
Assay [9] has as its system PC-3 prostate.
Assay [10] has as its system SNB-75 CNS.

Consider `C#CCN(Cc1nc2cc(C(F)(F)F)ccc2nc1-c1ccccc1)c1ccc(F)cc1`, for which the GI50 in [1] is 17.9 µM; in assay [2] it was 75.6 µM; in assay [3], 62.2 µM; in assay [4] it was 56.4 µM; in [5], 29.1 µM; in [6] it was 39.4 µM. The GI50 was 34.9 µM in assay [7], 44.2 µM in assay [8], 32 µM in assay [9] and 90.3 µM in [10]. For the same molecule, the TGI is 53.5 µM in assay [1]; greater than 100 µM in [2]; 92.2 µM in assay [3]; greater than 100 µM in assay [4]; 84.7 µM in assay [5]; greater than 100 µM in assay [6]. Further, the TGI in [7], in assay [8], in [9] and in [10] was greater than 100 µM in each case.

As for `O=S(=O)(NCCNc1cc(-c2cn(-c3ccccc3)nc2-c2cccc(O)c2)ccn1)c1ccc(Br)cc1`, the GI50 in assay [1] is 2.08 µM; in assay [2], 2.25 µM; in [3], 3.42 µM; in [4], 2.02 µM; in assay [5] it was 3.14 µM; in [6], 3.02 µM. The GI50 in assay [7] is 2.17 µM; in [8], 2.09 µM; in assay [9], 2.07 µM; in [10] it was 2.03 µM. Also, the TGI came to 5.08 µM in assay [1]; 5.97 µM in assay [2]; 20.4 µM in [3]; 5.04 µM in assay [4]; 12.5 µM in assay [5]; 11.6 µM in assay [6]. Besides, the TGI is 5.04 µM in assay [7], 4.78 µM in assay [8], 6.41 µM in assay [9] and 6.94 µM in assay [10].

Take `C[C@@H]1OC(=O)NN=C1c1ccc(-c2ccc(F)cc2)c(C(F)(F)F)c1`: the GI50 in assay [1] was 12.5 µM; in assay [2], 5.02 µM; in [3] it was 4.88 µM; in assay [4], 7.14 µM; in assay [5], 5.08 µM; in assay [6], 1.57 µM. In addition, the GI50 in assay [7] is 10.3 µM; in assay [8], 10.5 µM; in assay [9], 10.5 µM; in assay [10], 5 µM. In addition, the TGI is 25.8 µM in assay [1]; 21.6 µM in assay [2]; 18.7 µM in [3]; 21.6 µM in assay [4]; 21.2 µM in [5]; 20.7 µM in [6]. The TGI in assay [7] came out at 25.4 µM; in assay [8] it was 22.6 µM; in assay [9], 26.8 µM; in assay [10] it was 20.4 µM.

As for `CCC(=O)Nc1ncnc2ncn(C(=O)CC)c12`, the TGI in assay [1], in [2], in [3], in assay [4], in [5] and in assay [6] was greater than 100 µM each time. The TGI in [7], in [8], in assay [9] and in assay [10] was greater than 100 µM each time.

Consider `O=c1c(-c2nc3ccccc3[nH]2)cc2ccccc2n1Cc1cn(Cc2ccccc2Cl)nn1`, for which the GI50 in assay [1] was 1.62 µM; in assay [2], 2.1 µM; in assay [3], 1.93 µM; in assay [4] it was 2.65 µM; in [5], 1.94 µM; in assay [6], 1.72 µM. Moreover, the GI50 in assay [7] was 2.2 µM; in [8], 1.82 µM; in [9], 2.6 µM; in assay [10], 1.36 µM. Moreover, the TGI was found to be 3.65 µM in assay [1]; 4.78 µM in assay [2]; 4.74 µM in assay [3]; 9.33 µM in assay [4]; 4.22 µM in [5]; 3.21 µM in assay [6]. The TGI in [7] was found to be 4.7 µM; in assay [8], 3.35 µM; in [9], 7.5 µM; in assay [10], 3.2 µM.

Regarding `O=C(Nc1ccc(-n2ccc3c(NC(=O)c4ccccc4)nccc32)cc1)c1ccc(N2CCOCC2)c(C(F)(F)F)c1`, the GI50 was 5.96 µM in assay [1]; 4.83 µM in [2]; 0.0565 µM in [3]; 0.43 µM in [4]; 0.198 µM in assay [5]; 0.105 µM in assay [6]. Also, the GI50 in assay [7] was 0.0476 µM; in [8], 0.275 µM; in assay [9], 1.02 µM; in [10] it was 0.518 µM. Also, the TGI was 41.1 µM in assay [1]; greater than 76.1 µM in [2]; 15.7 µM in assay [3]; greater than 68.2 µM in [4]; 29.9 µM in [5]; greater than 87.6 µM in [6]. Also, the TGI in [7] was 3.71 µM; in [8], greater than 47.4 µM; in assay [9], 52.5 µM; in [10] it was 13.9 µM.

With `COc1ccc(C(=O)c2cc(C)c(OC)c(C)c2)c(OC)c1N(C(=O)CCl)C(=O)CCl`, the GI50 in assay [1] was 0.0667 µM; in [2], 0.101 µM; in assay [3], 0.0414 µM; in [4] it was 0.0365 µM; in assay [5], 0.0311 µM; in assay [6], 0.0388 µM. Moreover, the GI50 in assay [7] was 0.307 µM; in [8] it was 0.168 µM; in [9] it was 0.0467 µM; in [10] it was 0.0274 µM. Further, the TGI in assay [1] is 25.4 µM; in assay [2], greater than 53.6 µM; in [3] it was 33.5 µM; in assay [4], 0.531 µM; in [5], 1.48 µM; in assay [6] it was 16.8 µM. Further, the TGI in [7] was found to be 22.5 µM; in [8], 25.3 µM; in assay [9] it was 18.4 µM; in assay [10], 27.3 µM.

For `Cc1ccc2c(c1)-c1oc(=O)c(-c3cc4ccccc4oc3=O)cc1C(O)O2` (stereo not drawn), the GI50 was 10.2 µM in [1]; 20.8 µM in assay [2]; 20.5 µM in [3]; 21.4 µM in assay [4]; 23.2 µM in assay [5]; 11.6 µM in [6]. Further, the GI50 in [7] is 40.8 µM; in assay [8], 30.2 µM; in [9], 45.2 µM; in [10], 15.6 µM. Moreover, the TGI was 28.2 µM in assay [1]; 49.8 µM in assay [2]; 46.7 µM in assay [3]; 40.6 µM in assay [4]; 52.3 µM in [5]; 23.8 µM in [6]. Besides, the TGI in [7] is greater than 100 µM; in [8], 75.2 µM; in [9], greater than 100 µM; in assay [10], 47 µM.

In the case of `C[C@@]1(O)CCC[C@H]1n1c(=O)c(C(F)F)cc2cnc(NC3CCN(S(C)(=O)=O)CC3)nc21`, the GI50 in [1] is 1.29 µM; in [2] it was 1.21 µM; in assay [3], 3.45 µM; in [4], 1.75 µM; in [5], 12.7 µM; in [6] it was 2.18 µM. Besides, the GI50 in assay [7] was 1.27 µM; in assay [8], 2.06 µM; in assay [9] it was 2.1 µM; in assay [10], 0.223 µM. The TGI in assay [1] was 5.37 µM; in assay [2] it was greater than 100 µM; in assay [3] it was greater than 100 µM; in assay [4], 7.62 µM; in assay [5], greater than 100 µM; in assay [6], 54.7 µM. Moreover, the TGI in assay [7] is greater than 100 µM; in [8], 10.9 µM; in assay [9], greater than 100 µM; in assay [10] it was 2.38 µM.

Take `NC(Cc1c[nH]c2cc(F)ccc12)C(=O)O` (stereo not drawn): the GI50 in [1] is 859 µM; in assay [2], 1090 µM; in assay [4], 951 µM; in [5], 890 µM; in [6] it was 903 µM; in assay [7], 850 µM. The figures for the GI50 in assay [8], in [9] and in assay [10] were 1150 µM, 1810 µM and 1940 µM, respectively. Further, the TGI was 2320 µM in assay [1]; greater than 2500 µM in [2]; greater than 2500 µM in assay [3]; greater than 2500 µM in assay [4]; greater than 2500 µM in assay [5]; greater than 2500 µM in assay [6]. Also, the TGI in assay [7], in assay [8], in [9] and in [10] was greater than 2500 µM each time.

Turning to `S=C1SCN(C2CCCCCCCCCCC2)CN1C1CCCCCCCCCCC1`, the TGI in [1], in assay [2], in assay [3], in assay [4], in [5] and in assay [6] was greater than 100 µM each time. In addition, the TGI in [7], in [8], in [9] and in assay [10] was greater than 100 µM in each case.

As for `O=C1c2ccccc2-c2c1c1ccc([N+](=O)[O-])cc1c(=O)n2CCCn1ccnc1`, the GI50 in assay [1] was 0.148 µM; in [2], 0.984 µM; in [3], 0.172 µM; in assay [4] it was 0.106 µM; in assay [5] it was 0.0465 µM; in assay [6] it was less than 0.0152 µM. Moreover, the GI50 was less than 0.0418 µM in assay [7], 0.352 µM in [8] and 0.832 µM in assay [9]. Besides, the TGI is 1.97 µM in assay [1]; 4.25 µM in [2]; 0.807 µM in [3]; 0.453 µM in assay [4]; 0.366 µM in assay [5]; 0.0542 µM in assay [6]. Further, the TGI in [7] was 10.9 µM; in [8], 10.8 µM; in assay [9] it was 14.3 µM; in assay [10], 0.862 µM.

For `COC(=O)CCCNC(=O)C(=O)c1c(O)c(O)c(C(C)C)c2cc(C)c(-c3c(C)cc4c(C(C)C)c(O)c(O)c(C(=O)C(=O)NCCCC(=O)OC)c4c3O)c(O)c12`, the GI50 is 0.902 µM in [1]; 0.781 µM in assay [2]; 1.51 µM in [3]; 0.753 µM in assay [4]; 0.834 µM in assay [5]; 0.556 µM in assay [6]. The GI50 was 0.542 µM in assay [7], 1.1 µM in [8], 0.258 µM in [9] and 1.43 µM in [10]. The TGI in assay [1] is 12.9 µM; in [2], greater than 32.5 µM; in [3], greater than 32.5 µM; in [4], 2.31 µM; in assay [5] it was 16.6 µM; in assay [6] it was 3.74 µM. The TGI turned out to be 3.81 µM in assay [7], 6.92 µM in assay [8], 8.65 µM in assay [9] and 19.1 µM in assay [10].

As to `CN1CCN(Cc2ccc(NC(=O)c3cccc(C#Cc4c(N)ncc5ccc(F)cc45)c3)cc2C(F)(F)F)CC1`, the GI50 in assay [1] is 0.569 µM; in assay [2], 0.849 µM; in [3], 0.727 µM; in [4], 0.463 µM; in [5], 1.02 µM; in [6], 0.838 µM. Further, the GI50 in assay [7] was 0.391 µM; in assay [8], 0.79 µM; in assay [9], 0.852 µM; in assay [10] it was 0.257 µM. The TGI worked out at 1.35 µM in assay [1]; 1.76 µM in assay [2]; 1.43 µM in assay [3]; 1.24 µM in assay [4]; 2.55 µM in assay [5]; 1.59 µM in assay [6]. The TGI in assay [7] worked out at 1.87 µM; in assay [8], 1.53 µM; in [9], 1.86 µM; in [10] it was 0.866 µM.

Take `COc1ccc(C[C@H]2NC[C@H](O)[C@H]2OC(C)=O)cc1`: the TGI in assay [1] was 0.708 µM; in assay [2], 14.5 µM; in assay [3] it was 0.06 µM; in assay [4] it was 0.068 µM; in [5] it was 0.369 µM; in assay [6], 0.27 µM. Besides, the TGI in assay [7] is 0.179 µM; in assay [8], 0.351 µM; in [9], 0.49 µM; in assay [10] it was 0.0668 µM.

For the molecule `Clc1nc(-c2ccccc2)nc(Cl)c1Cl`, the TGI in assay [1] turned out to be 17.6 µM; in assay [2], 30.4 µM; in assay [3], 8.62 µM; in assay [4], 19.7 µM; in assay [5], 61.3 µM; in assay [6] it was 29.9 µM. Moreover, the TGI came out at 27.6 µM in [7], 31.6 µM in [8], 24.6 µM in assay [9] and 29.1 µM in assay [10].
